Columns and labels:
human TDO2 [1] = target: T1, human TDO2 (Homo sapiens, UniProt P48775); test: Cellular assay for TDO2 activity, A172 cells naturally expressing hTDO2; format: cell-based; set-up: expressed in transfected cells; host or cells: murine mastocytoma P815 cells; settings: A172 cells naturally expressing hTDO2, overnight incubation, kynurenine absorbance at 480 nm
Experimental: (§1) The assay was performed in 96-well flat bottom plates seeded with […] A172 cells, naturally expressing hTDO2 (prepared as described in Tilman et al., Mol Cancer, 2007, 17(6), 80), at a concentration of 1.25×10^4 cells/well in a final volume of 200 μL. To determine TDO, the cells were incubated overnight at 37° C. at 5% CO2 in IMDM (Invitrogen) supplemented with 2% FBS and 2% penicillin/streptomycin in the presence of the compounds of the present invention, at different concentrations.
(§2) The plates were then centrifuged 5 min at 1000 rpm, and 100 μL of the supernatant were collected in a conical plate, 30 uL of TCA 30% were added and a further centrifugated at 3000×g for 10 minutes. 100 μL of the supernatant were collected in a flat bottomed plate and 100 μL of 2% (w/v) 4-(dimethylamino)-benzaldehyde in acetic acid and incubated for 5 min at room temperature. Kynurenine concentrations were determined by measuring the absorbance at 480 nm. A standard curve was made with pure kynurenine. The TDO activity was measured as described above using ten serial concentrations of the compounds of the present invention. Data were fitted using the Prism software (GraphPad Software, Inc.).

human TDO2 [2] = target: T1, human TDO2; test: Assay for TDO2 enzymatic activity determination; format: biochemical; set-up: made in house; settings: human recombinant TDO2, L-Trp 1 mM, room temperature, one hour, kynurenine absorbance at 480 nm
Experimental: To measure the TDO2 activity, the reaction mixture contained (final concentrations) potassium phosphate buffer (50 mM, pH 7.5), ascorbic acid (0.25 M), methylene blue (0.125 μM), catalase (40 units/mL, from bovine liver, Sigma), and human recombinant TDO2 enzyme (prepared as described in Dolusic et al. J. Med. Chem.; 2011, 54, 5320-5334; 0.9 μg) without or with the compounds of the present invention at the indicated concentrations (total volume 112.5 μL). The reaction was initiated by the addition of 37.5 μL of L-Trp (final concentration 1 mM) at room temperature. The reaction was conducted at room temperature during one hour and stopped by the addition of 30 μL of 30% (w/v) trichloroacetic acid.
To convert N-formylkynurenine into kynurenine, the reaction mixture was incubated at 65° C. for 30 min. Then 150 μL of the reaction mixture was mixed with 120 μL of 2.5% (w/v) 4-(dimethylamino)-benzaldehyde in acetic acid and incubated for 5 min at room temperature. Kynurenine concentrations were determined by measuring the absorbance at 480 nm. A standard curve was made with pure kynurenine. The TDO activity was measured as described above using ten serial concentrations of the compounds of the present invention. Data were fitted using the Prism software (GraphPad Software, Inc.).

human TDO2 [3] = target: T1, human TDO2; test: Cellular assay for TDO2 activity, hTDO2-overexpressing P815 cells; format: cell-based; set-up: expressed in transfected cells; host or cells: murine mastocytoma P815 cells; settings: murine mastocytoma P815 cells overexpressing hTDO2, overnight incubation, kynurenine absorbance at 480 nm
Experimental: as §1, with “P815 cells overexpressing” for “A172 cells, naturally expressing”, “Pilotte” for “Tilman”, “PNAS, 2012, 109(7), 2497-2502),” for “Mol Cancer, 2007, 17(6), 80),”, “5×10^4” for “1.25×10^4”, “TDO or IDO activity,” for “TDO,”
as §2

T1 sequence (P48775 whole entry): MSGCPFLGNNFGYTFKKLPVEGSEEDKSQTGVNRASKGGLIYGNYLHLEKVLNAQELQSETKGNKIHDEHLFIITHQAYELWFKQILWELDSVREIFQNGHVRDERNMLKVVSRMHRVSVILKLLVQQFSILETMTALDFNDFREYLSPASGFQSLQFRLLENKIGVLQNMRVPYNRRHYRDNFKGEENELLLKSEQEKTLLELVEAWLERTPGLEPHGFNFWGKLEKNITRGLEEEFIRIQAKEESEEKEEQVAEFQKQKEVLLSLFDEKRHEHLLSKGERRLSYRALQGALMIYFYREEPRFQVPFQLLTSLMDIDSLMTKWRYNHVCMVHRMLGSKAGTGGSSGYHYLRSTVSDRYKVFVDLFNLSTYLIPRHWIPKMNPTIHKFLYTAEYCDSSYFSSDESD

IC50 (human TDO2 [1]) [nM]	IC50 (human TDO2 [2]) [nM]	IC50 (human TDO2 [3]) [nM]	Structure (SMILES)
< 1000	1000 to 10000	< 1000	CS(=O)(=O)N1CCC(n2cc(-c3c[nH]c4cc(F)ccc34)cn2)CC1 [Compound 106, 6-fluoro-3-(1-(1-(methylsulfonyl)piperidin-4-yl)-1H-pyrazol-4-yl)-1H-indole]
< 1000			COCC(=O)N1CCC(n2cc(-c3c[nH]c4cc(F)ccc34)cn2)CC1 [Compound 85, 1-(4-(4-(6-fluoro-1H-indol-3-yl)-1H-pyrazol-1-yl)piperidin-1-yl)-2-methoxyethanone]
< 1000			Fc1ccc2c(-c3cnn(CC4CCNCC4)c3)c[nH]c2c1 [Compound 43, 6-fluoro-3-(1-(piperidin-4-ylmethyl)-1H-pyrazol-4-yl)-1H-indole]
